Assay results reported in the NIST ThermoML archive (doi:10.1016/j.jct.2015.03.019).
Values joined by “and” are separate entries in the source; they are usually repeats but may differ in a detail not shown here. Identical values can stand only once.

Experiment: molar heat capacity at constant pressure
Details: 101.33 kPa, Small (less than 1 g) adiabatic calorimetry

CC(C)(C)c1ccc(Oc2ccccc2)cc1 [4-tert-butylphenyl phenyl ether]
molar heat capacity at constant pressure
Details	Crystal	Liquid
120 K	144.42 J/K/mol	–
120.73 K	145 J/K/mol	–
121.96 K	146.09 J/K/mol	–
123.18 K	147.08 J/K/mol	–
124.42 K	148.25 J/K/mol	–
125.65 K	149.33 J/K/mol	–
126.9 K	150.41 J/K/mol	–
128.13 K	151.57 J/K/mol	–
129.37 K	152.57 J/K/mol	–
130 K	153.32 J/K/mol	–
130.6 K	153.82 J/K/mol	–
131.84 K	154.9 J/K/mol	–
133.08 K	155.9 J/K/mol	–
134.32 K	157.23 J/K/mol	–
135.56 K	158.22 J/K/mol	–
136.81 K	159.31 J/K/mol	–
138.05 K	160.3 J/K/mol	–
139.3 K	161.47 J/K/mol	–
140 K	161.97 J/K/mol	–
140.55 K	162.46 J/K/mol	–
141.8 K	163.38 J/K/mol	–
143.04 K	164.54 J/K/mol	–
144.3 K	165.79 J/K/mol	–
145.55 K	166.71 J/K/mol	–
146.83 K	167.95 J/K/mol	–
148.09 K	169.12 J/K/mol	–
149.35 K	169.95 J/K/mol	–
150 K	170.61 J/K/mol	–
150.61 K	171.11 J/K/mol	–
151.87 K	172.28 J/K/mol	–
153.13 K	173.44 J/K/mol	–
154.39 K	174.44 J/K/mol	–
155.66 K	175.27 J/K/mol	–
156.93 K	176.43 J/K/mol	–
158.2 K	177.6 J/K/mol	–
159.47 K	178.43 J/K/mol	–
160 K	179.01 J/K/mol	–
160.74 K	179.34 J/K/mol	–
162.02 K	180.67 J/K/mol	–
163.29 K	181.92 J/K/mol	–
164.57 K	182.92 J/K/mol	–
165.84 K	184.08 J/K/mol	–
167.17 K	185.33 J/K/mol	–
168.45 K	186.16 J/K/mol	–
169.73 K	187.16 J/K/mol	–
170 K	187.41 J/K/mol	–
171.02 K	188.24 J/K/mol	–
172.31 K	189.4 J/K/mol	–
173.6 K	190.48 J/K/mol	–
174.89 K	191.57 J/K/mol	–
176.18 K	192.9 J/K/mol	–
177.47 K	193.64 J/K/mol	–
178.77 K	194.81 J/K/mol	–
180 K	195.72 J/K/mol	–
180.07 K	195.97 J/K/mol	–
181.37 K	197.05 J/K/mol	–
183.98 K	199.21 J/K/mol	–
185.29 K	200.46 J/K/mol	–
186.59 K	201.63 J/K/mol	–
187.96 K	202.71 J/K/mol	–
189.28 K	203.54 J/K/mol	–
190 K	204.12 J/K/mol	–
190.59 K	204.62 J/K/mol	–
191.9 K	205.95 J/K/mol	–
193.22 K	207.03 J/K/mol	–
194.54 K	208.28 J/K/mol	–
195.86 K	209.36 J/K/mol	–
197.19 K	210.52 J/K/mol	–
198.51 K	211.69 J/K/mol	–
199.84 K	212.52 J/K/mol	–
200 K	212.52 J/K/mol	–
202.54 K	214.35 J/K/mol	–
203.91 K	215.51 J/K/mol	–
205.26 K	216.84 J/K/mol	–
206.62 K	217.92 J/K/mol	–
209.43 K	220.42 J/K/mol	–
210 K	221.08 J/K/mol	–
212.14 K	222.5 J/K/mol	–
213.5 K	223.66 J/K/mol	–
214.85 K	224.82 J/K/mol	–
216.21 K	225.99 J/K/mol	–
218.93 K	228.56 J/K/mol	–
220 K	229.81 J/K/mol	–
220.29 K	230.06 J/K/mol	–
221.64 K	231.06 J/K/mol	–
222.99 K	232.06 J/K/mol	–
224.34 K	233.39 J/K/mol	–
225.69 K	234.72 J/K/mol	–
227.04 K	235.72 J/K/mol	–
228.4 K	237.05 J/K/mol	–
229.74 K	238.29 J/K/mol	–
230 K	238.71 J/K/mol	–
231.18 K	240.12 J/K/mol	–
236.59 K	245.11 J/K/mol	–
237.93 K	246.03 J/K/mol	–
239.28 K	247.27 J/K/mol	–
240 K	247.77 J/K/mol	–
240.62 K	248.44 J/K/mol	–
241.97 K	249.68 J/K/mol	–
243.31 K	250.76 J/K/mol	–
244.65 K	252.18 J/K/mol	–
248.66 K	256.25 J/K/mol	–
250 K	257.67 J/K/mol and 257.5 J/K/mol	–
251.33 K	258.91 J/K/mol	–
252.75 K	260.49 J/K/mol	–
254.09 K	261.41 J/K/mol	–
255.42 K	262.82 J/K/mol	–
256.75 K	264.07 J/K/mol	–
260 K	267.48 J/K/mol	–
260.74 K	268.39 J/K/mol	–
262.06 K	269.56 J/K/mol	–
263.38 K	270.8 J/K/mol	–
264.71 K	272.05 J/K/mol	–
266.03 K	273.38 J/K/mol	–
267.35 K	274.54 J/K/mol	–
268.67 K	275.96 J/K/mol	–
269.98 K	276.87 J/K/mol	–
270 K	277.2 J/K/mol	–
271.3 K	278.45 J/K/mol	–
272.62 K	279.7 J/K/mol	–
276.62 K	283.69 J/K/mol	–
277.92 K	285.02 J/K/mol	–
279.22 K	286.27 J/K/mol	–
280 K	287.1 J/K/mol	–
280.53 K	287.51 J/K/mol	–
281.83 K	289.01 J/K/mol	–
283.13 K	290.09 J/K/mol	–
284.43 K	291.09 J/K/mol	–
288.3 K	295.16 J/K/mol	–
289.59 K	296.49 J/K/mol	–
290 K	296.41 J/K/mol	–
290.87 K	297.33 J/K/mol	–
292.15 K	298.24 J/K/mol	–
293.43 K	298.91 J/K/mol	–
294.71 K	299.82 J/K/mol	–
298.15 K	302.98 J/K/mol	–
299.77 K	304.06 J/K/mol	–
300 K	304.48 J/K/mol	–
301.26 K	305.47 J/K/mol	–
302.92 K	307.05 J/K/mol	–
304.58 K	308.88 J/K/mol	–
306.25 K	310.3 J/K/mol	–
309.6 K	312.87 J/K/mol	–
310 K	313.21 J/K/mol	–
311.29 K	315.62 J/K/mol	–
314.7 K	320.94 J/K/mol	–
316.41 K	322.19 J/K/mol	–
318.13 K	325.68 J/K/mol	–
319.86 K	330.17 J/K/mol	–
320 K	321.69 J/K/mol	–
321.61 K	331 J/K/mol	–
327.84 K	328.26 J/K/mol	384.38 J/K/mol
330 K	–	386.29 J/K/mol
334.3 K	–	391.36 J/K/mol
340 K	–	394.94 J/K/mol
340.65 K	–	394.52 J/K/mol
347.01 K	–	398.93 J/K/mol
350 K	–	403.25 J/K/mol
351.17 K	–	405 J/K/mol
353.12 K	–	407.24 J/K/mol
355.08 K	–	408.24 J/K/mol
357.06 K	–	409.82 J/K/mol
359.07 K	–	410.65 J/K/mol
360 K	–	411.57 J/K/mol
361.08 K	–	411.57 J/K/mol
363.12 K	–	412.65 J/K/mol
365.18 K	–	413.4 J/K/mol
367.25 K	–	414.06 J/K/mol
369.35 K	–	414.89 J/K/mol
370 K	–	414.89 J/K/mol
371.48 K	–	415.81 J/K/mol
